# Tests used:
# 5-HT1-like receptors = assay: Serotonin-agonistic contractions in segments of the isolated basilar artery of the pig (in vitro antimigraine activity); assay type: cell-based; conditions: porcine basilar artery, in vitro; for pD2 = neg. log of Concentration Which Produces 50% of Maximum Contraction: concentrations in mol/l
# Text: 3. Investigation of Properties Indicating Antimigraine Activity of Test Substance in vitro. Migraine pains are associated with excessive dilation of the cranial vascular system. […] This property of the test substances can be used as a basis for predicting anti-migraine activity. The serotoninagonistic activity of the substances on 5-HT1 -like receptors can be determined in vitro in isolated organ strips from the basilar artery of a pig. […] Such a contraction is also produced by the test substances and is a good index of the antimigraine activity of the substances. The tests are carried out according to the method described by van Charldorp et al. (Naunyn-Schmiedeb. Arch. Pharmacol. supp. to volume 341, R89, 1990 and Eur. J. Pharmacol. 183, 1106-1107, 1990). Experimental description of the in vitro determination of the effect inducing serotonin-agonistic contractions in segments of the isolated basilar artery of the pig. For the experiment, helical segments of the basilar artery of pigs were used which were isolated from pig brains supplied by a slaughterhouse. Each strip was fixed in an organ bath consisting of 10 ml of a modified Tyrode solution such that the tissue was under a tension of 10 mN. […] The solution was modified by adding 10^-8 mol/l of indomethacin, 10^-7 mol/l of atropine and 10^-7 mol/l of propanolol and adjusted to pH=7.4. The bath was aerated with a mixture of 95% O2 and 5% CO2. After an equilibration phase of 1 hour a contraction of the tissue was produced twice, in each case by addition of serotonin at a concentration of 10^-5 mol/l and the preparation was subsequently washed out. The contraction effect was then measured with increasing serotonin concentration and a cumulative concentration effect curve for serotonin was drawn up. A cumulative concentration effect curve was drawn up for the test substance on the same preparation (after washing out again). In the following Table B, the maximum contraction caused by the test substances in relationship to the maximum contraction produced by serotonin, and the negative logarithm of that concentration of the test substance which produces 50% of the maximum contraction which can be produced by this test substance (=pD2), and the relative potency calculated as pD2 of the test substance relative to the pD2 of serotonin determined on the same piece of artery are given.
# Mouse = system: Mouse; design: species or system Male mice; conditions: in vivo, po, 4320 min
# Protocol: 1. Determination of the minimum toxic dose.
# Male mice of 20-25 g weight are administered maximum doses of 300 mg/kg of the test substance p.o. The animals were carefully observed for 3 hours for symptoms of toxicity. Over a period of 72 hours after administration, all symptoms and cases of death are additionally recorded. Concomitant symptoms are likewise observed and recorded. If death or strong toxic symptoms are observed, further mice are administered increasingly lower doses until toxic symptoms no longer occur. The lowest dose which causes death or strong toxic symptoms is given in the following Table A as the minimum toxic dose. The example numbers given in Table A relate to the subsequent preparation examples.
# stomach motility = assay: Determination of effect on stomach motility in anaesthetised rats; assay type: in vivo, rats of the SIV 50 strain; conditions: rat
# Protocol: 2. Determination of effect on stomach motility in anaesthetised rats.
# For the tests, groups of 5-6 fasting rats of the SIV 50 strain having a body weight of 220-290 g were used in each test which had been anaesthetised with a ketamine/xylazine mixture. The animals received an initial dose of 1 ml/kg of a solution of 50 mg/ml of ketamine and 10 mg/ml of xylazine administered i.p., and the anaesthetic level was maintained by a continuous intraperitoneal infusion of the same solution at an infusion rate of 1 ml/kg/h. The animals were tracheotomised and laparotomised. After applying a pylorus ligature, a stomach tube was inserted into the stomach and connected at the other end by means of a three-way tap to a calibrated pressure transducer (Statham Element P 23 ID). A corresponding tube was inserted rectally 8-9 cm into the colon and likewise connected in the same manner to a calibrated pressure transducer of the same type. The stomachs of the animals were then filled with 2 ml of water via the tube. After a stabilisation phase of 40 min, the pressure variations in the stomach and colon were measured over a test period of 2 hours and 20 minutes, and the amplitudes produced by the phasic gastric motility were recorded by means of a Watanabe multirecorder (MC 6621). The geometric mean values of the amplitudes during the first 20 min were determined for the individual animals and used as control amplitude values. After the first 20 min, the test substances were administered i.p. The maximum increase in amplitude (=mean value of the 20 minute period in which the highest increase in amplitude occurs) caused by the test substances was determined in % increase of the control amplitude values determined before administration of the test substances, and the mean value for the animal group is given in the following Table A. In addition, the maximum increase in the mean gastric tone caused by the test substances during the test period compared with the mean gastric tone existing before administration of the test substances was recorded. This increase in gastric tone is given in Table A in cm of H2 O (mean value of the animal group). In the colon, the test substances cause amplitude damping.
# [1] = ip, 10 μmole/kg i.p., read-out: Maximum Amplitude Increase (increase in % of control amplitude)
Compound,Maximum Contraction Produced by Test Substance Relative to Maximum Contraction Produced by Serotonin = 1 (5-HT1-like receptors),relative potency calculated as pD2 of the test substance relative to the pD2 of serotonin determined on the same piece of artery (5-HT1-like receptors),pD2 = neg. log of Concentration Which Produces 50% of Maximum Contraction (5-HT1-like receptors),Minimum Toxic Dose (Mouse),change in vivo at 10 µmol/kg (stomach motility; [1]),Gastric Tone Increase (stomach motility; 10 μmole/kg i.p.),"change in vivo at 100 µmol/kg (stomach motility; ip, 100 μmole/kg i.p., read-out: Maximum Amplitude Increase (increase in % of control amplitude))",Gastric Tone Increase (stomach motility; 100 μmole/kg i.p.)
"Cn1cc2c3c(cccc31)C(=O)NCC2CN (stereo not drawn) [Example 9, 1-methyl-3-aminomethyl-3,4,5,6-tetrahydro-6-oxo-1H-azepino[5,4,3-cd]indole]",0.5,0.124,6.4,> 300 mg/kg,334%,5.5 cm H2O,,
"CNCC1CNC(=O)c2cccc3[nH]cc1c23 (racemic) [Example 4, 3-Methylaminomethyl-3,4,5,6-tetrahydro-6-oxo-1H-azepino[5,4,3-cd]indole]",0.6,0.208,6.8,> 300 mg/kg,,,532%,9.0 cm H2O
"NCC1CNC(=O)c2cccc3[nH]cc1c23 (racemic) [Example 1, 3-Aminomethyl-3,4,5,6-tetrahydro-6-oxo-1H-azepino[5,4,3-cd]indole]",0.8,0.132,6.5,> 300 mg/kg,449%,7.4 cm H2O,,

# From patent publication US5272143A, “6-oxoazepinoindole compounds, and pharmaceutical compositions containing them” (Kali-Chemie Pharma GmbH, priority 1991, dated 1993)
